In patent US20210236425A1, “NEW TREATMENT OF INTERSTITIAL LUNG DISEASES” (INIM PHARMA AB, priority 2018, published 2021):

Columns and labels:
[1] = Dissolution kinetics in SLF with Tween 80, non-sink conditions; format: physicochemical; conditions: SLF with 1 wt % Tween 80, 80 mg dosage
Procedure: Given that thalidomide rapidly recrystallizes in solution, an experiment was conducted in the presence of a surfactant to stabilize the dissolved drug.
Tween 80 (1 wt %; Sigma) was added in the dissolution bath in SLF media. The dosage was increased to 80 mg to investigate the dissolution kinetics at high drug concentration, to simulate dissolution in non-sink conditions.

[2] = Dissolution kinetics in SLF, USP2 apparatus; format: physicochemical; conditions: SLF pH 7.4, 37° C., 5 mg in 500 mL
Procedure: The dissolution kinetics of the 3 different loading samples described in Example 5 were characterized in SLF (pH 7.4; made up with the salts NaCl, NaHCO3, KCl, MgCl2, CaCl2, Na2SO4, sodium citrate dihydrate, NaH2PO4 (all from Sigma)) at 37° C. using a USP2 dissolution apparatus with stirring speed 50 rpm. Free, unloaded thalidomide was used as control. Concentration of drug at set times after release was measured by a UV/vis spectrometer (Cecil 3021) at 220 nm.
The dose of thalidomide was calculated as 5 mg of thalidomide in 500 mL of SLF.

## O=C1CCC(N2C(=O)c3ccccc3C2=O)C(=O)N1 (centres unmarked) [free drug, thalidomide]
[1]
  time to reach Cmax: 30 min
[2]
  time in which Cmax was achieved: 30 min
